The values that follow come from patent publication US20210023065A1, “AMPHIPHILIC THIOL COMPOUNDS AND USES THEREOF” (THE REGENTS OF THE UNIVERSITY OF CALIFORNIA, priority 2018, published 2021).

Holding throughout (type): cell-based
One assay deals with T1, CD44 (Homo sapiens, UniProt P16070).
T1 construct: we detected the palmitoylation levels of eight known palmitoylated proteins after treatment with 1; endogenous in cells; host or cells: HeLa
As to the kind of experiment: Acyl resin-assisted capture detection of CD44 palmitoylation in HeLa cells. To be noted: 1.25 μmol/10^7 cells, relative to vehicle. As to the method:
(§1) HeLa cells were grown to confluency in 10 cm plates. Stock solutions of compounds were prepared in DMSO as before and diluted to the final indicated concentration in 5.5 mL of OptiMEM media before adding to cells. Cells were incubated at 37° C. for 20 min and then media removed and 3 mL of HBSS added to each plate. Cells were detached using a cell scraper, pelleted by centrifugation at 1,000 rcf for 5 min and the pellet processed using a CAPTUREome S-Palmitoylated Protein Kit (Badrilla, UK) according to the manufacturer's protocol. Samples were resolved by electrophoresis using 4-20% SDS-polyacrylamide gels (Bio-Rad) under denaturing and reducing conditions. Proteins were then electrotransferred to a PVDF membrane (Bio-Rad). […]
(§2) Assays were performed in 3 biological replicates. […] Western blots were analyzed using ImageJ^1. […]

In another assay the target is T2, SNAP25 (Homo sapiens, UniProt P60880).
T2 construct: we detected the palmitoylation levels of eight known palmitoylated proteins after treatment with 1; endogenous in cells; host or cells: HeLa
T2 sequence (P60880 whole entry): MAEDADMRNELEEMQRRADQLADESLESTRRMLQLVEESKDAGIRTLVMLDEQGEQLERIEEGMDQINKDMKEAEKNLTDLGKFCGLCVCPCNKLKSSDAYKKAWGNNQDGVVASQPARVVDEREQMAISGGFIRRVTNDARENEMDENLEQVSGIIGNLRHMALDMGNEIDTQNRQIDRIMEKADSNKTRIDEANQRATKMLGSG
In words: Acyl resin-assisted capture detection of SNAP25 palmitoylation in HeLa cells. To be noted: 1.25 μmol/10^7 cells, relative to vehicle. As to the method: as §1, §2

For a further assay, the target named is T3, GAP43 (Homo sapiens, UniProt P17677).
T3 construct: Western blot detection of endogenous GAP43 in acyl resin-assisted capture fractions; host or cells: INCL human lymphoblasts
T3 sequence (P17677 1-238): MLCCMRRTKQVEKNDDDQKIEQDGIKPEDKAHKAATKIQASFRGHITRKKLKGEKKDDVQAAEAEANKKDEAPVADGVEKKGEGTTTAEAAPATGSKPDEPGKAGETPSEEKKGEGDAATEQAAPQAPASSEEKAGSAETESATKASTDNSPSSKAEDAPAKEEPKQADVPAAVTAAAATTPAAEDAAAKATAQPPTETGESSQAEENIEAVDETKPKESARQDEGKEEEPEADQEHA
As to the kind of experiment: Acyl resin-assisted capture detection of GAP43 palmitoylation in INCL lymphoblasts. To be noted: 0.05 μmol/10^7 cells, 24 h. Here is the method: INCL Lymphoblasts were adjusted to 1,000,000 cells/mL in 20 mL of OptiMem Media. Stock solutions of compounds were prepared in DMSO as before and diluted to the indicated final concentration in the cell suspension. […] Cells were pelleted by centrifugation at 1,000 rcf for 5 min and the pellet processed using a CAPTUREome S-Palmitoylated Protein Kit (Badrilla, UK) according to the manufacturer's protocol. Samples were resolved by electrophoresis using 4-20% SDS-polyacrylamide gels (Bio-Rad) under denaturing and reducing conditions. Proteins were then electrotransferred to a PVDF membrane (Bio-Rad). The membrane was blocked with 3% BSA and then subjected to immunoblot analysis using GAP-43 (B-5) Antibody (sc-17790) (Santa Cruz Biotechnology) and secondary antibody goat anti-mouse IgG HRP (ThermoFisher). Chemiluminescent detection was performed by using SuperSignal West Pico PLUS chemiluminescent substrate (ThermoFisher) according to the manufacturer's instructions.
Assays were performed in 3 biological replicates. Each replicate involved the analysis of 4 to 5 conditions side-by-side. Western blots were analyzed using ImageJ^1. The intensity of the protein band in each cleaved bound fraction (palmitoylated protein fraction) was normalized to the intensity of the corresponding input fraction (total protein fraction). The values within individual S 4 replicates were normalized to the control or vehicle condition and reported as means±SD. An unpaired t test was performed to determine the significance between means.

Another assay relates to AKT1 (pS473). In words: Detection of AKT1 phosphorylation in HeLa cells (western blot). To be noted: 1.25 μmol/10^7 cells, 20 min, then EGF 5 min. Here is the method:
HeLa cells were grown to confluency in 6 cm plates and then serum starved overnight in OptiMEM. Stock solutions of compounds were prepared in DMSO as before and diluted to the final indicated concentration in 2 mL of OptiMEM media before adding to cells. Cells were incubated at 37° C. for 20 min and then stimulated with […] EGF (ThermoFisher) for 5 min. Media was then removed and cells washed once with HBSS. 1.5 mL of HBSS was then added to each plate. Cells were detached using a cell scraper, pelleted by centrifugation at 1,000 rcf for 5 min and the pellet processed using MPER™ Mammalian Protein Extraction Reagent (ThermoFisher) with the addition of Halt Protease Inhibitor Cocktail (ThermoFisher) and 1 mM sodium orthovanadate. Samples were resolved by electrophoresis using 4-20% SDS-polyacrylamide gels (Bio-Rad) under denaturing and reducing conditions. Proteins were then electrotransferred to a PVDF membrane (Bio-Rad). The membrane was blocked with 3% BSA and then subjected to immunoblot analysis using AKT/MAPK Signaling Pathway Antibody Cocktail (ab151279) (Abcam) and secondary goat anti-rabbit IgG-HRP (sc-2030) (Santa Cruz Biotechnology). […]
Assays were performed in 3 biological replicates. Western blots were analyzed using ImageJl. […]

The next assay concerns the target T4, flotillin-2 (Homo sapiens, UniProt Q14254).
T4 construct: we detected the palmitoylation levels of eight known palmitoylated proteins after treatment with 1; endogenous in cells; host or cells: HeLa
T4 sequence (Q14254 1-428): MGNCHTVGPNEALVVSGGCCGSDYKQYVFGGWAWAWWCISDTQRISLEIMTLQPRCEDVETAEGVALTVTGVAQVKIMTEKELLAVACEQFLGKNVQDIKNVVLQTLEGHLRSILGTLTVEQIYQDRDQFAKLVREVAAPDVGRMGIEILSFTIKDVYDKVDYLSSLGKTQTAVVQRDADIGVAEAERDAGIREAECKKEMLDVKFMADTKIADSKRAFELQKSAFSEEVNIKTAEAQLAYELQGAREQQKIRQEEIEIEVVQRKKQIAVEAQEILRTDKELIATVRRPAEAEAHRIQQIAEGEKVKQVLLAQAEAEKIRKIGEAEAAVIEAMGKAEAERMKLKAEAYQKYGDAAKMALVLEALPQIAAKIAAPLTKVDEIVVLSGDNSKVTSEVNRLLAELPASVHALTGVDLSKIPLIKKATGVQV
In words: Acyl resin-assisted capture detection of flotillin-2 palmitoylation in HeLa cells. To be noted: 1.25 μmol/10^7 cells, relative to vehicle. Here is the method: as §1, §2

T1 sequence (P16070 21-742): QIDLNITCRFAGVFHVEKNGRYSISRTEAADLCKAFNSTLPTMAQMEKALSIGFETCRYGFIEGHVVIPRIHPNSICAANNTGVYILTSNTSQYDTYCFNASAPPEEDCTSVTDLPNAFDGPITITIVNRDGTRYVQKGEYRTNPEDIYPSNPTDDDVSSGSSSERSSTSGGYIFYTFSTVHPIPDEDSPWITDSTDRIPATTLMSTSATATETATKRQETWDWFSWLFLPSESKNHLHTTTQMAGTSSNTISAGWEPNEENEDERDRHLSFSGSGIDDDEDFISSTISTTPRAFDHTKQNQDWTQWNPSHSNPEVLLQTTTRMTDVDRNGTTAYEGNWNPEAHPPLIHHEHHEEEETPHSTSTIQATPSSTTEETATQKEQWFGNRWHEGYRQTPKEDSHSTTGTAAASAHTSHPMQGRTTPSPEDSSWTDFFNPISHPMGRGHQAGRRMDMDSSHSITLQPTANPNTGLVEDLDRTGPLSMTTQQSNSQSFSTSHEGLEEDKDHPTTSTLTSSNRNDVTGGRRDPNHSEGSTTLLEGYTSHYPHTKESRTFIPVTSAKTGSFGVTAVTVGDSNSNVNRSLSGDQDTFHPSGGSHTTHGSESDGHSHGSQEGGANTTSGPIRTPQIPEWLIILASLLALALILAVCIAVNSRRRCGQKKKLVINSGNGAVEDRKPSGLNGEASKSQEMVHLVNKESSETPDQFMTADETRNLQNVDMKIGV

Regarding `CCCCCCCCNC(=O)[C@@H](N)CS` [compound 1, H2N-L-Cys-Oct], the “reduction of palmitoylation level of CD44” value on CD44 is greater than 80%. For the same compound, the “reduction of palmitoylation level of SNAP25” value on SNAP25 was greater than 80%. At GAP43, the “level of GAP43 palmitoylation” value is on record as “significantly reduced”. In addition, in the assay with AKT1 (pS473), the “AKT1 phosphorylation after EGF stimulation” value is “significant decrease”. The “reduction of palmitoylation level of flotillin-2” value at flotillin-2 is 19-40%.
